Experimental data reported in PMC5448077, “Development of an orally available inhibitor of CLK1 for skipping a mutated dystrophin exon in Duchenne muscular dystrophy” (Scientific Reports, 2017).

Experiments:
Assay in all cases: biochemical
[1] = target: T1, AurA/TPX2 (Homo sapiens, UniProt O14965)
T1 construct: gene AURKA
Method: (§1) These assays rely on the phosphorylation of small synthetic peptides developed for each kinase, and detect activity by changes in electrophoretic mobility (MSA assay) or by binding of a fluorescently labelled peptide to a large micro-particle and concomitant polarization increases (IMAP assay). Reaction conditions for each kinase are described in Supplementary Table S5. All kinase assays were carried out at Carna Biosciences (Kobe, Japan). The inhibitory map was constructed using Kinome Render[41]. Inhibitor (4×), substrate/ATP-Metal (4×), and kinase (2×) solutions were prepared with assay buffer (20 mM HEPES, 0.01% Triton X-100, 2 mM DTT, pH 7.5) and mixed in 384-well plates at room temperature for 1 or 5 h depending on the kinase. Reactions were stopped by the addition of termination buffer (QuickScout Screening Assist MSA; Carna Biosciences). The entire reaction mixture was then applied to a LabChip system (Perkin-Elmer, Waltham, MA, USA) and the product and substrate peptide peaks were separated and quantified, and then heights of product (P) and substrate (S) peptide peaks were calculated. The level of kinase activity was evaluated with the following equation: activity = P/(P + S).

[2] = target: PAK1 (Homo sapiens, UniProt Q13153)
Method: as §1

[3] = target: KIT(V654A) (Homo sapiens, UniProt P10721, V654A)
Method: as §1

[4] = target: T2, MST3 (Homo sapiens, UniProt Q9Y6E0)
T2 construct: gene STK24
Method: as §1

[5] = target: FGFR2 (Homo sapiens, UniProt P21802)
Method: as §1

[6] = target: MAPKAPK5 (Homo sapiens, UniProt Q8IW41)
Method: as §1

[7] = target: T3, PDHK2 (Homo sapiens, UniProt Q15119)
T3 construct: gene PDK2
Method: as §1

[8] = target: PAK4 (Homo sapiens, UniProt O96013)
Method: as §1

[9] = target: T4, PKACα (Homo sapiens, UniProt P17612)
T4 construct: gene PRKACA
Method: as §1

[10] = target: KIT (Homo sapiens, UniProt P10721)
Method: as §1

[11] = target: T5, CK2α1/β (Homo sapiens, UniProt P68400)
T5 construct: gene CSNK2A1
Method: as §1

[12] = target: PLK2 (Homo sapiens, UniProt Q9NYY3)
Method: as §1

[13] = target: PLK3 (Homo sapiens, UniProt Q9H4B4)
Method: as §1

[14] = target: IRAK4 (Homo sapiens, UniProt Q9NWZ3)
Method: as §1

[15] = target: T6, PKCε (Homo sapiens, UniProt Q02156)
T6 construct: gene PRKCE
Method: as §1

[16] = target: T7, PKD3 (Homo sapiens, UniProt O94806)
T7 construct: gene PRKD3
Method: as §1

[17] = target: EPHA7 (Homo sapiens, UniProt Q15375)
Method: as §1

[18] = target: T8, FYN(isoform a) (Homo sapiens, UniProt P06241)
T8 construct: isoform a
Method: as §1

[19] = target: AKT3 (Homo sapiens, UniProt Q9Y243)
Method: as §1

[20] = target: KIT(D816V) (Homo sapiens, UniProt P10721, D816V)
Method: as §1

[21] = target: T9, NDR1 (Homo sapiens, UniProt Q15208)
T9 construct: gene STK38
Method: as §1

[22] = target: T10, NDR2 (Homo sapiens, UniProt Q9Y2H1)
T10 construct: gene STK38L
Method: as §1

[23] = target: T11, BRK (Homo sapiens, UniProt Q13882)
T11 construct: gene PTK6
Method: as §1

[24] = target: T12, p38β (Homo sapiens, UniProt Q15759)
T12 construct: gene MAPK11
Method: as §1

[25] = target: MUSK (Homo sapiens, UniProt O15146)
Method: as §1

[26] = target: MAPKAPK2 (Homo sapiens, UniProt P49137)
Method: as §1

[27] = target: T13, MST4 (Homo sapiens, UniProt Q9P289)
T13 construct: gene STK26
Method: as §1

[28] = target: MET(M1250T) (Homo sapiens, UniProt P08581, M1250T)
Method: as §1

[29] = target: ROCK1 (Homo sapiens, UniProt Q13464)
Method: as §1

[30] = target: T14, PDK1 (Homo sapiens, UniProt O15530)
T14 construct: gene PDPK1
Method: as §1

[31] = target: MARK2 (Homo sapiens, UniProt Q7KZI7)
Method: as §1

PAK4, sequence (O96013 whole entry): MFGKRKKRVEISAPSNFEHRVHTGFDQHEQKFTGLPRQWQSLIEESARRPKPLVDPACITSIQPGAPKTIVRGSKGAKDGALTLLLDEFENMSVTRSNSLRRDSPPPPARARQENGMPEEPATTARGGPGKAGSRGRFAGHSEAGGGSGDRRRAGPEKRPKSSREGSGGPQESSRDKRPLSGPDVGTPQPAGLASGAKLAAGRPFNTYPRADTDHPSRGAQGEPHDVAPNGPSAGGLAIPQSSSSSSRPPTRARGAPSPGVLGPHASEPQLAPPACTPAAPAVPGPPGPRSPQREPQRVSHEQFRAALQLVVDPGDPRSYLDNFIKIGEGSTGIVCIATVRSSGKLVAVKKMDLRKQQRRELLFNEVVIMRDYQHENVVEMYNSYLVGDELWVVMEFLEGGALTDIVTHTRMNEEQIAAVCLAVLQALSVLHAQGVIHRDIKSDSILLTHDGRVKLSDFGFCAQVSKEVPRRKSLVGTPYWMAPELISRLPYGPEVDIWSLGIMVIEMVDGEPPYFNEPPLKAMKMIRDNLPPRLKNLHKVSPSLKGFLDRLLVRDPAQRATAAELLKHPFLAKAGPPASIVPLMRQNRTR
KIT(V654A), sequence (P10721 whole entry V654A): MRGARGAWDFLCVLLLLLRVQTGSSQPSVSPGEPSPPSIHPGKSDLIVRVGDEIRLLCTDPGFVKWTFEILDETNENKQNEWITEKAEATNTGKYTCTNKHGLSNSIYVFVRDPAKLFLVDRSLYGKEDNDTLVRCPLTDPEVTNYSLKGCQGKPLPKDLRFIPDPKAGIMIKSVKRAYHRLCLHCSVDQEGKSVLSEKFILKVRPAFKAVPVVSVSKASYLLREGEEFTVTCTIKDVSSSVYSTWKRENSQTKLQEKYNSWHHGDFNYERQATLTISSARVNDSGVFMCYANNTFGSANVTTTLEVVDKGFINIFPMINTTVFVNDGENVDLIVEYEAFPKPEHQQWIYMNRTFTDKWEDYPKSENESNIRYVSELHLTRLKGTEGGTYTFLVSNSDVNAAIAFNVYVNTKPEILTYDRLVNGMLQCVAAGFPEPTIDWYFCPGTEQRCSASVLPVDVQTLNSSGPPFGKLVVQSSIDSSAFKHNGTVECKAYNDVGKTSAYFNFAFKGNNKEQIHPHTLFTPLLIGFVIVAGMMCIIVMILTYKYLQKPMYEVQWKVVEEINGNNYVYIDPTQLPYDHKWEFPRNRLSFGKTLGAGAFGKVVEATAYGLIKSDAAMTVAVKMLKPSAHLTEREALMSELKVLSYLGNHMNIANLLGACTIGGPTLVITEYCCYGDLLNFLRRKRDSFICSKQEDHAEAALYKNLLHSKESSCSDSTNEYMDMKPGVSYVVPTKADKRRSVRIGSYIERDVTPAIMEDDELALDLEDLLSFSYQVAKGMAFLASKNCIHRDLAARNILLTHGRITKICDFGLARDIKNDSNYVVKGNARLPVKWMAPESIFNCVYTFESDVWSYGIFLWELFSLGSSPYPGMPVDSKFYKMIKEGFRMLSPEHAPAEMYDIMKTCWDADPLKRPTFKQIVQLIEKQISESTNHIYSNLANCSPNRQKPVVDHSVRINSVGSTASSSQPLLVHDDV
T1 sequence (O14965 whole entry): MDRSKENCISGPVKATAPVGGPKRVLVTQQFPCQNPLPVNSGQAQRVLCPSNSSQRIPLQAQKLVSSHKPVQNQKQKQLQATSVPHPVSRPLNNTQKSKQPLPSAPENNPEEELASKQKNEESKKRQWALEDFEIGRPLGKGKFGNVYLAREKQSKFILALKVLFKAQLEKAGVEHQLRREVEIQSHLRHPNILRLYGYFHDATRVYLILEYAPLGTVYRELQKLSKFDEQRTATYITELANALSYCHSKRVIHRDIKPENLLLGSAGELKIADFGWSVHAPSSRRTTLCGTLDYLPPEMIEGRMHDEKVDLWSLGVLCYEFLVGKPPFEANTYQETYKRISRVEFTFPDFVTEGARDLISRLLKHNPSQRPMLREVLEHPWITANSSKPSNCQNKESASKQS
T1 sequence (Q9ULW0 whole entry partner): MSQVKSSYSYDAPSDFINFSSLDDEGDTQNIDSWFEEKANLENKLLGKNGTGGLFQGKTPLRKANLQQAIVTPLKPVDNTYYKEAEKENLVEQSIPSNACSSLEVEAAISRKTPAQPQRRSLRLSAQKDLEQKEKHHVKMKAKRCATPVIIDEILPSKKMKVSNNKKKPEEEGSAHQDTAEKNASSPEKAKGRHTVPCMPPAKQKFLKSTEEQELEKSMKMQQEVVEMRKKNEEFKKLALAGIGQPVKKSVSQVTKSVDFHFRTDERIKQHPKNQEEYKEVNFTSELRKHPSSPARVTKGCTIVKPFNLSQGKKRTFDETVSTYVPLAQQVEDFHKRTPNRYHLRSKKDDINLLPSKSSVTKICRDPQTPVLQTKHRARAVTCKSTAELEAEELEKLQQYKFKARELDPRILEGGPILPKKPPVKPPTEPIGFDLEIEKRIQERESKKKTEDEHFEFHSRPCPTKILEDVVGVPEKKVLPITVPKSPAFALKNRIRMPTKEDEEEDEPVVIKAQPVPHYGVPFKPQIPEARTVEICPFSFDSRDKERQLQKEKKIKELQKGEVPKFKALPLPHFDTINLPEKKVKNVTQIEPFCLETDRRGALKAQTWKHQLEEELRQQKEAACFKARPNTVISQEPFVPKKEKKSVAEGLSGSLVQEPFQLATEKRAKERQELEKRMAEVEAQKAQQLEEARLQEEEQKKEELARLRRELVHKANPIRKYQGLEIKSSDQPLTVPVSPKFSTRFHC
AKT3, sequence (Q9Y243 whole entry): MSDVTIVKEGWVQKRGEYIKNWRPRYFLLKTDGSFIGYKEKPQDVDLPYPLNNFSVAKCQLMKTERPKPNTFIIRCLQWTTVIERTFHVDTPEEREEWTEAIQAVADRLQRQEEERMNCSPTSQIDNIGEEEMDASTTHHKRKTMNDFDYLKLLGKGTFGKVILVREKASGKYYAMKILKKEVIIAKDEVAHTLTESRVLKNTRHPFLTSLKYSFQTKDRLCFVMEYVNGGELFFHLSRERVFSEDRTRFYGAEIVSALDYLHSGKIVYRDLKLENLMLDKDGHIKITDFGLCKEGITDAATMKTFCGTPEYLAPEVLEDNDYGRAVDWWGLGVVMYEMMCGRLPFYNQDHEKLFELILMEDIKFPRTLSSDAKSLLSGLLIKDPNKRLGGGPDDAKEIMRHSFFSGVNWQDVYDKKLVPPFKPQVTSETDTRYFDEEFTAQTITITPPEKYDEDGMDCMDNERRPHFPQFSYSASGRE
KIT, sequence (P10721 whole entry): as the sequence (P10721 whole entry V654A) above, with A654V counted along it
ROCK1, sequence (Q13464 whole entry): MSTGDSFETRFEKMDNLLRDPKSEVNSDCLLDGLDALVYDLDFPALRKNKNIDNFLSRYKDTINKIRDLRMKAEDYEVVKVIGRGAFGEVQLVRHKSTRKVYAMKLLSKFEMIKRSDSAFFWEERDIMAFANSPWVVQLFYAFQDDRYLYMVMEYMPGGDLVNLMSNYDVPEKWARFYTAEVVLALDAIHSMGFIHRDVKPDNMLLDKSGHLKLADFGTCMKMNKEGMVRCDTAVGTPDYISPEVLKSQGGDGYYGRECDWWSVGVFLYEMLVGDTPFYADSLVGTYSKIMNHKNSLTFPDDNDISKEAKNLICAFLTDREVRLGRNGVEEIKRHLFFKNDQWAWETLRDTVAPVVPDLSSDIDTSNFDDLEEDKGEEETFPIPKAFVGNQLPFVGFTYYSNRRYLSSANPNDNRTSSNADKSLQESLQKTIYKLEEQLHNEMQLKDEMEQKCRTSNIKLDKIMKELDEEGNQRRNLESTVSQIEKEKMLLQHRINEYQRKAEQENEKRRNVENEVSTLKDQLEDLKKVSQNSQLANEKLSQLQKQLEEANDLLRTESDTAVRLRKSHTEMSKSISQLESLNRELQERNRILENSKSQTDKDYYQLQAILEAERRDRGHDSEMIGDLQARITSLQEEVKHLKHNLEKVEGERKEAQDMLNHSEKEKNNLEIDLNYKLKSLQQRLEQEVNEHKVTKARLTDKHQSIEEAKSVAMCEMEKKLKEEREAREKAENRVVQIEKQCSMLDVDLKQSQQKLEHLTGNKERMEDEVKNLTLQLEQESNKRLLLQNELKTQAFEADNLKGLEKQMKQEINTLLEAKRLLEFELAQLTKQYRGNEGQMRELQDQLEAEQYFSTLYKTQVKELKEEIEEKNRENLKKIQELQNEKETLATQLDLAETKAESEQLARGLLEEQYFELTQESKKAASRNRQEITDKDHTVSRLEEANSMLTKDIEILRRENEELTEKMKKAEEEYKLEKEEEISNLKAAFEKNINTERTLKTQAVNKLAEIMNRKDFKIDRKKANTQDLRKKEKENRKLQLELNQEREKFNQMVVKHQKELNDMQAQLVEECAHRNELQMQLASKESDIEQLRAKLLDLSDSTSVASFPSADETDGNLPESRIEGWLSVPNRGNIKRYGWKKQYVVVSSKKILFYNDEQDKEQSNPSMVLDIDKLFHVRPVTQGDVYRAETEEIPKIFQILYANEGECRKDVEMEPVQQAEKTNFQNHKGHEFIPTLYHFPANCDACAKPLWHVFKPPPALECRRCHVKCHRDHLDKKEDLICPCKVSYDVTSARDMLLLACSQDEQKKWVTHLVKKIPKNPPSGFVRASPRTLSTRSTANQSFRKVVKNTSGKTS
T12 sequence (Q15759 whole entry): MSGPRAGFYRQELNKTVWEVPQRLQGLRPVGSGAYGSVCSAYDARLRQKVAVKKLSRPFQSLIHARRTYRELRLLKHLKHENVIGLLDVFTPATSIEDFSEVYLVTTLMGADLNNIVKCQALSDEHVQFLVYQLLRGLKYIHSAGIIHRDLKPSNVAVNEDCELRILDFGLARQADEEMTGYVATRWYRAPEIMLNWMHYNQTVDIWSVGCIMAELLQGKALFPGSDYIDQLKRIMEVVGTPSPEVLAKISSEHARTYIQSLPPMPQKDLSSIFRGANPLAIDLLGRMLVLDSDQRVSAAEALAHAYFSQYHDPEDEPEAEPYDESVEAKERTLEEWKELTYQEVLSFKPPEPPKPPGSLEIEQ
KIT(D816V), sequence (P10721 whole entry D816V): as the sequence (P10721 whole entry V654A) above, with A654V, D816V counted along it

Q: For `c1cc(-c2ccc3[nH]ncc3c2)ccn1` [TG693, 5-(4-pyridinyl)-1H-indazole], which inhibition at 1 µM [1] is on record?
A: Its inhibition at 1 µM is 8.5%.

Q: What about the inhibition at 1 µM [2] of the same compound?
A: Its inhibition at 1 µM is -3.8%.

Q: What about the inhibition at 1 µM [3] of the same compound?
A: Its inhibition at 1 µM is -1.5%.

Q: What about the inhibition at 1 µM [4] of the same compound?
A: Its inhibition at 1 µM is 1%.

Q: And the inhibition at 1 µM [5]?
A: The inhibition at 1 µM was 1.7%.

Q: And the inhibition at 1 µM [6]?
A: Its inhibition at 1 µM is 2.6%.

Q: What about the inhibition at 1 µM [7] of the same compound?
A: Its inhibition at 1 µM is -0.8%.

Q: And the inhibition at 1 µM [8]?
A: Its inhibition at 1 µM is -13.7%.

Q: And the inhibition at 1 µM [9]?
A: The inhibition at 1 µM was 9.5%.

Q: What about the inhibition at 1 µM [10] of the same compound?
A: The inhibition at 1 µM was -0.9%.

Q: What about the inhibition at 1 µM [11] of the same compound?
A: Its inhibition at 1 µM is 3.5%.

Q: And the inhibition at 1 µM [12]?
A: The inhibition at 1 µM was 2.9%.

Q: And the inhibition at 1 µM [13]?
A: Its inhibition at 1 µM is 1.7%.

Q: What about the inhibition at 1 µM [14] of the same compound?
A: The inhibition at 1 µM was 8.4%.

Q: And the inhibition at 1 µM [15]?
A: Its inhibition at 1 µM is 12.3%.

Q: What about the inhibition at 1 µM [16] of the same compound?
A: Its inhibition at 1 µM is -9%.

Q: What about the inhibition at 1 µM [17] of the same compound?
A: The inhibition at 1 µM was 5%.

Q: What about the inhibition at 1 µM [18] of the same compound?
A: Its inhibition at 1 µM is -0.7%.

Q: What about the inhibition at 1 µM [19] of the same compound?
A: The inhibition at 1 µM was -4.6%.

Q: What about the inhibition at 1 µM [20] of the same compound?
A: Its inhibition at 1 µM is -1.1%.

Q: And the inhibition at 1 µM [21]?
A: Its inhibition at 1 µM is 11.5%.

Q: What about the inhibition at 1 µM [22] of the same compound?
A: Its inhibition at 1 µM is 7.5%.

Q: What about the inhibition at 1 µM [23] of the same compound?
A: Its inhibition at 1 µM is 5.2%.

Q: What about the inhibition at 1 µM [24] of the same compound?
A: The inhibition at 1 µM was -1.5%.

Q: What about the inhibition at 1 µM [25] of the same compound?
A: The inhibition at 1 µM was -5%.

Q: And the inhibition at 1 µM [26]?
A: The inhibition at 1 µM was -26%.

Q: And the inhibition at 1 µM [27]?
A: Its inhibition at 1 µM is 4.1%.

Q: And the inhibition at 1 µM [28]?
A: The inhibition at 1 µM was -0.8%.

Q: What about the inhibition at 1 µM [29] of the same compound?
A: Its inhibition at 1 µM is 27.6%.

Q: And the inhibition at 1 µM [30]?
A: The inhibition at 1 µM was -3.9%.

Q: And the inhibition at 1 µM [31]?
A: The inhibition at 1 µM was 20.3%.
